Laboratory results reported in ChEMBL document CHEMBL3045494, “Inhibitory effect and structureactivity relationship of some Biginelli-type pyrimidines against HSV-1” (Med Chem Res, 2013).
Activity calls are given as the source filed them.

Key:
Vero = assay: (§1) Cytotoxicity against Chlorocebus aethiops (African green monkey) Vero cells after 72 hr by XTT assay; format: cell-based; conditions: chlorocebus sabaeus, vero, 72 h
[1] = as §1; format: cell-based; conditions: chlorocebus sabaeus, Vero cells
Human alphaherpesvirus 1 = assay: Antiviral activity against Human herpesvirus 1 strain KOS infected Vero cells after 72 hr by plaque reduction assay; format: functional, organism-based
[2] = Therapeutic index, ratio of CC50 for African green monkey Vero cells to IC50 for Herpes simplex virus 1 KOS; format: cell-based; conditions: read-out: Ratio CC50/IC50
[3] = Selectivity index, ratio of CC25 for African green monkey Vero cells to IC25 for Herpes simplex virus 1 KOS; format: toxicity, cell-based; conditions: read-out: Selectivity Index
[4] = Human alphaherpesvirus 1, KOS, Vero, 72 h
[5] = Human alphaherpesvirus 1, KOS, Vero, 72 h, read-out: IC50

Row | SMILES | CC25 (Vero) | CC50 at 72 h [1] | IC25 (Human alphaherpesvirus 1; [4]) | IC50 (Human alphaherpesvirus 1; [5]) | selectivity ratio [2] | selectivity ratio [3] | IC25 (Human alphaherpesvirus 1) | IC50 (Human alphaherpesvirus 1; vero) | CC50 (Vero)
1 | CC1=C(C(=O)Nc2ccccc2Cl)C(C(C)c2ccccc2)NC(=O)N1 (stereo unspecified) | 1.7 µmol/L | 91.5 µM | 21.3 µM | > 100 µM | < 1 | 0.07 |  |  | 
2 | COC(=O)C1=C(C)NC(=S)NC1c1ccc(Br)cc1 (stereo unspecified) | 69.1 µmol/L | 97.2 µM | 67.7 µM | 82.7 µM | 1.22 | 0.8 |  |  | 
3 | CC1=C(C(=O)Nc2ccccc2Cl)C(c2cnc(CS)n2NCc2ccccc2)NC(=O)N1 (stereo unspecified) | > 100 µmol/L | > 100 µM |  |  | < 1 | < 1 | inactive | Not Active | 
4 | CC1=C(C(=O)Nc2ccccn2)C(c2cccs2)NC(=O)N1 (stereo unspecified) | > 100 µmol/L | > 100 µM | 97.7 µM | > 100 µM | > 1 | > 1 |  |  | 
5 | CC1=C(C(=O)Nc2ccccc2Cl)C(c2ccccc2Br)NC(=O)N1 (stereo unspecified) | 58.8 µmol/L | > 100 µM | 13.9 µM | 59.8 µM | > 1.6 | 4.2 |  |  | 
6 | CC1=C(C(=O)OC(C)C)C(c2cccs2)NC(S)=N1 (stereo unspecified) | 5.7 µmol/L | 53.9 µM | 8.5 µM | 28 µM | 1.9 | 0.6 |  |  | 
7 | CC1=C(C(=O)Nc2ccccc2Cl)C(c2ccccc2Cl)NC(=S)N1 (stereo unspecified) | 24.5 µmol/L | > 100 µM | 0.7 µM | > 100 µM | > 1 | 35 |  |  | 
8 | CC1=C(C(=O)Nc2cccc(Cl)c2)C(c2cnc(CS)n2Nc2ccccc2)NC(=O)N1 (stereo unspecified) | 71.1 µmol/L | 98.6 µM | 13.7 µM | > 100 µM | < 0.9 | 5.1 |  |  | 
9 | CC1=C(C(=O)Nc2ccccc2Cl)C(c2cnc(CS)n2Nc2ccccc2)NC(=O)N1 (stereo unspecified) | 97.7 µmol/L | > 100 µM |  |  | < 1 | < 1 | inactive | Not Active | 
10 | CC1=C(C(=O)Nc2cccnc2)C(c2cccs2)NC(=O)N1 (stereo unspecified) | > 100 µmol/L | > 100 µM |  |  | < 1 | < 1 | inactive | Not Active | 
11 | CC1=C(C(=O)Nc2ccccc2Cl)C(c2cccc([N+](=O)[O-])c2)NC(=O)N1 (stereo unspecified) | Non-toxic |  | 0.1 µM | 46.1 µM | > 2.1 | > 1000 |  |  | Non-toxic
12 | COC(=O)C1=C(C)NC(=S)NC1c1cccs1 (stereo unspecified) | Non-toxic |  | 92.5 µM | > 100 µM | > 1 | > 1.1 |  |  | Non-toxic
13 | CC1=C(C(=O)Nc2ccccc2Cl)C(c2ccccc2Cl)NC(=O)N1 (stereo unspecified) | Non-toxic |  | 0.1 µM | 67.4 µM | > 1.4 | > 1000 |  |  | Non-toxic
14 | COc1ccc(C2NC(=O)NC(C)=C2C(=O)Nc2ccccc2Cl)cc1 (stereo unspecified) | 17.6 µmol/L | > 100 µM | 0.7 µM | 63.6 µM | > 1.5 | 25.1 |  |  | 
15 | CC1=C(C(=O)Nc2ccccc2Cl)C(c2ccc([N+](=O)[O-])cc2)NC(=O)N1 (stereo unspecified) | Non-toxic |  | 0.6 µM | 81.9 µM | > 1.2 | > 167 |  |  | Non-toxic
16 | CCOC(=O)C1=C(C)N=C(S)NC1c1cccs1 (stereo unspecified) | 87.3 µmol/L | 100 µM | 14 µM | > 100 µM |  | 6.2 |  |  | 

Row | SMILES | CC25 (Vero) | CC50 at 72 h [1] | IC25 (Human alphaherpesvirus 1; [4]) | IC50 (Human alphaherpesvirus 1; [5]) | selectivity ratio [2] | selectivity ratio [3] | IC25 (Human alphaherpesvirus 1) | IC50 (Human alphaherpesvirus 1; vero) | CC50 (Vero)
17 | COC(=O)C1=C(C)NC(=O)NC1c1ccc(F)cc1 (stereo unspecified) | Non-toxic |  |  |  | 1 | 1 | inactive | Not Active | Non-toxic
18 | CC1=C(C(=O)Nc2ccccc2Cl)C(c2ccc(C)cc2)NC(=O)N1 (stereo unspecified) | > 100 µmol/L | > 100 µM | 0.08 µM | 10.5 µM | > 10 | > 1250 |  |  | 
19 | CC1=C(C(=O)Nc2ccc(Cl)cc2)C(c2cnc(CS)n2Nc2ccccc2)NC(=O)N1 (stereo unspecified) | 53.9 µmol/L | > 100 µM | 37 µM | > 100 µM | > 1 | 1.4 |  |  | 
20 | CC1=C(C(=O)Oc2ccccc2)C(c2ccccc2)NC(=O)N1 (stereo unspecified) | 98 µmol/L | > 100 µM | 10.4 µM | 89.7 µM | > 1.1 | 9.4 |  |  | 
21 | COC(=O)C1=C(C)N(C)C(=O)NC1c1ccc(F)cc1 (stereo unspecified) | Non-toxic |  |  |  | 1 | 1 | inactive | Not Active | Non-toxic
22 | CC1=C(C(=O)NC2CCCCC2)C(c2ccccc2)NC(=O)N1 (stereo unspecified) | 7.6 µmol/L | > 100 µM | 0.2 µM | > 100 µM | > 1 | 38 |  |  | 
23 | CC1=C(C(=O)Nc2ccccc2Cl)C(c2cccs2)NC(=O)N1 (stereo unspecified) | 98.9 µmol/L | > 100 µM | 25.2 µM | 81.5 µM | > 1.2 | 3.9 |  |  | 
24 | CCOC(=O)C1=C(C)NC(=S)NC1c1ccc(Br)cc1 (stereo unspecified) | 9.3 µmol/L | 38.9 µM | 87.3 µM | 122 µM | 0.31 | 0.1 |  |  | 
25 | CC1=C(C(=O)Oc2ccccc2)C(c2ccccc2)NC(=S)N1 (stereo unspecified) | Non-toxic |  | 93.2 µM | > 100 µM | > 1 | > 1.1 |  |  | Non-toxic
26 | CCOC(=O)C1=C(C)N(C)C(=O)NC1c1ccc(F)cc1 (stereo unspecified) | Non-toxic |  | 99 µM |  | 1 | > 1 |  | Not Active | Non-toxic
27 | CC1=C(C(=O)Nc2ccccc2Cl)C(c2ccc(Cl)cc2)NC(=O)N1 (stereo unspecified) | Non-toxic |  | 0.16 µM | 13 µM | > 6.6 | > 625 |  |  | Non-toxic
28 | CCOC(=O)C1=C(C)NC(=O)NC1c1ccc(F)cc1 (stereo unspecified) | Non-toxic |  |  |  | 1 | 1 | inactive | Not Active | Non-toxic
29 | CCOC(=O)C1=C(C)NC(=O)NC1c1ccc(Br)cc1 (stereo unspecified) | 67.5 µmol/L |  |  |  |  |  |  |  | 
30 | CCCC1NC(=O)NC(C)=C1C(=O)OCC (stereo unspecified) | Non-toxic |  |  |  | 1 | 1 | inactive | Not Active | Non-toxic
31 | CCOC(=O)C1=C(C)NC(=O)NC1c1cnc(CS)n1NCc1ccccc1 (stereo unspecified) | Non-toxic |  |  |  | 1 | 1 | inactive | Not Active | Non-toxic
32 | CCOC(=O)C1=C(C)NC(=O)NC1c1ccccc1 (stereo unspecified) | Non-toxic |  | 133 µM |  | 1 | > 1 |  | Not Active | Non-toxic
